Each structure is given as a SMILES string.

Common to all, as to assay type: biochemical
One assay deals with Stromelysin (Homo sapiens, UniProt P08254). The assay is described as follows: MMP inhibition by particle concentration fluorescence technique (stromelysin). The settings on record: pH 7.5; 15 min enzyme preincubation; substrate 1-3 h at room temperature; read-out: MMP Inhibition Constants, Stromelysin Ki. An outline of the steps:
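Fluorescein- and biotin-labelled substrate captured on avidin particles after reaction; intact, uncleaved substrate retains fluorescence, so signal rises with inhibition. Activated enzyme incubated with two-fold serial compound dilutions 15 minutes at room temperature.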

For a further assay, the target named is Gelatinase. The assay is described as follows: MMP inhibition by particle concentration fluorescence technique (gelatinase). The settings on record: pH 7.5; 15 min enzyme preincubation; substrate 1-3 h at room temperature; read-out: MMP Inhibition Constants, Gelatinase Ki. An outline of the steps: (§1)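 Compound serially diluted two-fold in 50 mM Tris-HCl pH 7.5, 150 mM NaCl, preincubated 15 min with activated enzyme at room temperature. Fluorescein/biotin-tagged substrate then added for 1-3 hours in the dark. Intact substrate captured on avidin-coated particles; fluorescence signal indicates inhibition.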

For another assay, the target named is T1, Collagenase (Homo sapiens, UniProt P03956).
T1 sequence (P03956 100-469): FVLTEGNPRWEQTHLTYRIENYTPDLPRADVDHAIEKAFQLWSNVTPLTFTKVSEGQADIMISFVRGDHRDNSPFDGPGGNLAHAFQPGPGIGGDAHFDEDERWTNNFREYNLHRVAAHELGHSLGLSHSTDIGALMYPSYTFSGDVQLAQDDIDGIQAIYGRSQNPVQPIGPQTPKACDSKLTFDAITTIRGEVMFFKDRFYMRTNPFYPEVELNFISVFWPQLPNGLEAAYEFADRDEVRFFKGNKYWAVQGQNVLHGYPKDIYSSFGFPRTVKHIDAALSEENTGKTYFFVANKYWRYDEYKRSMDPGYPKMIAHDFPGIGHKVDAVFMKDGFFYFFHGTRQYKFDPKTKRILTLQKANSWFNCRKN
The assay is described as follows: MMP inhibition by particle concentration fluorescence technique (collagenase). The settings on record: pH 7.5; 15 min enzyme preincubation; substrate 1-3 h at room temperature; read-out: MMP Inhibition Constants, Collagenase Ki. An outline of the steps: as §1

Sequence of Stromelysin (P08254 100-477): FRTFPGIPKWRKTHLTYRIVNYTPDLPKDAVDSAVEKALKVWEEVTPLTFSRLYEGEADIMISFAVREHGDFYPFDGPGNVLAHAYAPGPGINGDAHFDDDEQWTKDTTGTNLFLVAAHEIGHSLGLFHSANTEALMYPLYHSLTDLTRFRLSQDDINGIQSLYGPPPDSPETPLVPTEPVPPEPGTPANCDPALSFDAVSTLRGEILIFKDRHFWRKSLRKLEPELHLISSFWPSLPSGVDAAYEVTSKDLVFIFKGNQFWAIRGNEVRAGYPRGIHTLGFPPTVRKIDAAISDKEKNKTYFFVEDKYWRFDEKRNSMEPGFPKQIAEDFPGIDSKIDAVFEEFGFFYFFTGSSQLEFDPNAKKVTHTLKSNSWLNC

On to `CC(C)C[C@@]1(CC(=O)NO)CCN([C@@H](Cc2ccccc2)C(=O)NCc2ccncc2)C1=O` [Example 45, [S-(R*,R*)]-N^3 -Hydroxy-3-(2-methylpropyl)-2-oxo-α^1-(phenylmethyl)-N^1-(4-pyridinylmethyl)-1,3-pyrrolidinediacetamide], for which the values for the Ki at Stromelysin, on Gelatinase and at Collagenase were 1010 nM, 17 nM and 23.5 nM, respectively.

On to `CC(C)C[C@@]1(CC(=O)NO)CCN([C@@H](Cc2ccccc2)C(=O)NCc2ccc(F)cc2)C1=O` [Example 46, [S-(R*,R*)]-N^1-(4-Fluorophenylmethyl)-N^3-hydroxy-3-(2-methylpropyl)-2-oxo-α^1-(phenylmethyl)-1,3-pyrrolidinediacetamide], for which the figures for the inhibition constant (Ki) on Stromelysin, at Gelatinase and on Collagenase were 2100 nM, 40 nM and 35 nM, respectively.

Consider `CNC(=O)[C@H](CCc1ccccc1)N1CC[C@](CC(=O)NO)(CC(C)C)C1=O` [Example 47, [S-(R*,R*)]-N^3 -Hydroxy-N^1-methyl-3-(2-methylpropyl)-2-oxo-α^1-(2-phenylethyl)-1,3-pyrrolidinediacetamide], for which the values for the Ki at Stromelysin, on Gelatinase and on Collagenase were 868 nM, 85.3 nM and 81.5 nM, respectively.

In the case of `CC(C)C[C@@]1(CC(=O)NO)CCN([C@@H](CCc2ccccc2)C(=O)NCc2ccccc2)C1=O` [Example 48, [S-(R*,R*)]-N^3 -Hydroxy-3-(2-methylpropyl)-2-oxo-α^1-(2-phenylethyl)-N^1-(phenylmethyl)-1,3-pyrrolidinediacetamide], the Ki at Stromelysin is 385 nM; at Gelatinase, 160 nM; at Collagenase, 72 nM.

Take `CC(C)C[C@@H](C(=O)Nc1ccccn1)N1CC[C@](CC(=O)NO)(CC(C)C)C1=O` [Example 49, [S-(R*,R*)]-N^3 -Hydroxy-α^1,3-bis(2-methylpropyl)-2-oxo-N^1-2-pyridinyl-1,3-pyrrolidinediacetamide]: the Ki is 138 nM on Stromelysin, 61 nM on Gelatinase and 85 nM on Collagenase.

Turning to `CNC(=O)[C@H](C1CCCCC1)N1CC[C@](CC(=O)NO)(CC(C)C)C1=O` [Example 50, [S-(R*,R*)]-α^1 -Cyclohexyl-N^3-hydroxy-N^1-methyl-3-(2-methylpropyl)-2-oxo-1,3-pyrrolidinediacetamide], the Ki on Stromelysin worked out at 283 nM; on Gelatinase, 17 nM; at Collagenase it was 6.06 nM.

Turning to `CC(C)C[C@@]1(CC(=O)NO)CCN([C@H](C(=O)Nc2ccccn2)C2CCCCC2)C1=O` [Example 51, [S-(R*,R*)]-α^1 -Cyclohexyl-N^3-hydroxy-3-(2-methylpropyl)-2-oxo-N^1-2-pyridinyl-1,3-pyrrolidinediacetamide], the inhibition constant Ki at Stromelysin came out at 84 nM; on Gelatinase, 23 nM; at Collagenase, 42.2 nM.

With `CNC(=O)[C@H](Cc1ccccc1)N1CC[C@](CC(=O)NO)(CC2CCCC2)C1=O` [Example 52, [S-(R*,R*)]-3-(Cyclopentylmethyl)-N^3-hydroxy-N^1-methyl-2-oxo-α^1-(phenylmethyl)-1,3-pyrrolidinediacetamide], the inhibition constant (Ki) at Stromelysin stood at 187 nM; at Gelatinase, 1.1 nM; on Collagenase, 1.3 nM.

Take `CNC(=O)[C@H](Cc1ccccc1)N1CC[C@@](CC(C)C)([C@H](CCNC(=O)c2ccccc2)C(=O)NO)C1=O` [Example 53, [3S-[1(R*),3R*(R*)]]-α^3-[2-(Benzoylamino)ethyl]-N^3-hydroxy-N^1-methyl-3-(2-methylpropyl)-2-oxo-α^1-(phenylmethyl)-1,3-pyrrolidinediacetamide]: the results for the inhibitory constant (Ki) at Stromelysin, at Gelatinase and on Collagenase were 10.5 nM, 1.06 nM and 0.69 nM, respectively.

`CC(C)C[C@@]1(CC(=O)NO)CCN([C@@H](Cc2ccccc2)C(=O)NCCN2CCOCC2)C1=O` [Example 54, [S-(R*,R*)]-N^3 -Hydroxy-3-(2-methylpropyl)-N^1-[2-(4-morpholinyl)ethyl]-2-oxo-α^1-(phenylmethyl)-1,3-pyrrolidinediacetamide]: the inhibition constant Ki at Stromelysin was determined as 700 nM; at Gelatinase, 70 nM; on Collagenase, 76 nM.

With `CC(C)C[C@@]1(CC(=O)NO)CCN([C@@H](Cc2ccccc2)C(=O)N2CCOCC2)C1=O` [Example 55, [S-(R*,R*)]-N-Hydroxy-3-(2-methylpropyl)-1-[2-(4-morpholinyl)-2-oxo-1-(phenylmethyl)ethyl]-2-oxo-3-pyrrolidineacetamide], the Ki at Stromelysin came to 1900 nM; at Gelatinase, 211 nM; on Collagenase, 750 nM.

Regarding `CC(C)C[C@@]1(CC(=O)NO)CCN([C@@H](Cc2ccccc2)C(=O)Nc2ccccn2)C1=O` [Example 57, [S-(R*,R*)]-N^3 -Hydroxy-3-(2-methylpropyl)-2-oxo-α^1-(phenylmethyl)-N^1-2-pyridinyl-1,3-pyrrolidinediacetamide], the inhibitory constant (Ki) was 75 nM at Stromelysin, 9.5 nM at Gelatinase and 12 nM at Collagenase.

For `CC(C)C[C@@]1(CC(=O)NO)CCN([C@H](C(=O)Nc2ccc(F)cc2)C2CCCCC2)C1=O` [Example 60, [S-(R*,R*)]-α^1 -Cyclohexyl-N^1-(4-fluorophenyl)-N^3-hydroxy-3-(2-methylpropyl)-2-oxo-1,3-pyrrolidinediacetamide], the inhibition constant Ki on Stromelysin was 19 nM; at Gelatinase, 12.3 nM; on Collagenase, 18 nM.

In the case of `CCCOc1ccc2c(c1)C(=O)N(CCC(C(=O)NO)C1(CC(C)C)CCN(CCc3ccccc3)C1=O)C2=O` (stereo not drawn) [Example 62, N-Hydroxy-3-(2-methylpropyl)-2-oxo-1-(2-phenylethyl)-α-[2-(5-propyloxy-1,3-dihydro-1,3-dioxo-2H-isoindol-2-yl)ethyl]-3-pyrrolidineacetamide], the Ki worked out at 369 nM at Stromelysin, 310 nM at Gelatinase and 55000 nM on Collagenase.

In the case of `CC(C)C[C@@]1([C@@H](CCN2C(=O)c3ccc(F)cc3C2=O)C(=O)NO)CCN(CCc2ccccc2)C1=O` [Example 63, [R-(R*,S*)]-5-Fluoro-1,3-dihydro-N-hydroxy-α-[3-(2-methylpropyl)-2-oxo-1-(2-phenylethyl)-3-pyrrolidinyl]-1,3-dioxo-2H-isoindole-2-butanamide], the results for the inhibition constant (Ki) at Stromelysin, at Gelatinase and on Collagenase were 58 nM, 32 nM and 1500 nM, respectively.

For the compound `CC(C)CC1(C(CCN2C(=O)c3cc(F)c(F)cc3C2=O)C(=O)NO)CCN(CCc2ccccc2)C1=O` (stereo not drawn) [Example 64, α-[2-(5,6-Difluoro-1,3-dihydro-1,3-dioxo-2H-isoindol-2-yl)ethyl]-N-hydroxy-3-(2-methylpropyl)-2-oxo-1-(2-phenylethyl)-3-pyrrolidineacetamide], the inhibition constant (Ki) is 107 nM at Stromelysin, 49 nM at Gelatinase and 735 nM on Collagenase.

With `CC(C)C[C@@]1([C@@H](CCNC(=O)c2cccc(F)c2)C(=O)NO)CCN(CCc2ccccc2)C1=O` [Example 74, [R-(R*,S*)-α-[2-[(3-Fluorobenzoyl)amino]ethyl]-N-hydroxy-3-(2-methylpropyl)-2-oxo-1-(2-phenylethyl)-3-pyrrolidineacetamide], the inhibition constant (Ki) on Stromelysin is 52 nM; on Gelatinase, 21 nM; at Collagenase, 26 nM.

Regarding `CC(C)C[C@@]1([C@@H](CCN2Cc3ccc(F)cc3C2=O)C(=O)NO)CCN(CCc2ccccc2)C1=O` [Example 87, [R-(R*,S*)]-6-Fluoro-1,3-dihydro-N-hydroxy-α-[3-(2-methylpropyl)-2-oxo-1-(2-phenylethyl)-3-pyrrolidinyl]-1-oxo-2H-isoindole-2-butanamide], the Ki at Stromelysin stood at 91 nM; on Gelatinase, 4.88 nM; at Collagenase, 230 nM.

(Values after patent US5712300A, “Hydroxamic acid derivatives useful for the treatment of diseases related to connective tissue degradation” (priority 1997, dated 1998).)
